According to patent publication US20220062291A1, “COMPOSITIONS AND METHODS OF TREATING CANCERS BY ADMINISTERING A PHENOTHIAZINE-RELATED DRUG THAT ACTIVATES PROTEIN PHOSPHATASE 2A (PP2A) WITH REDUCED INHIBITORY ACTIVITY TARGETED TO THE DOPAMINE D2 RECEPTOR AND ACCOMPANYING TOXICITY” (DANA-FARBER CANCER INSTITUTE, INC., priority 2018, published 2022):
Entries after “also recorded” stand apart in the source; their conditions may differ.

Legend:
[1] = test system: T-ALL cells isolated from Tg(rag2:Myc; rag2:EGFP) zebrafish; assay: Zebrafish embryos transplanted with T-ALL cells, GFP-positive leukemic area; format: in vivo
Excerpt: (n=10) N.S.; not significant, **P<0.01 and ****P<0.0001 by two-tailed Welch's t-test.

[2] = target: T1, human dopamine receptor D2 (DRD2) (Homo sapiens, UniProt P14416); assay: Dopamine receptor D2 inhibition assay (SRE-luciferase reporter in HEK293T cells); format: cell-based; conditions: for inhibitory activity on DRD2: 0.5, 1, 2 and 4 μM for three hours with 2 μM dopamine
T1 construct: expressed in transfected cells; host or cells: HEK293T (pcDNA3 vectors)
T1 sequence (P14416 whole entry): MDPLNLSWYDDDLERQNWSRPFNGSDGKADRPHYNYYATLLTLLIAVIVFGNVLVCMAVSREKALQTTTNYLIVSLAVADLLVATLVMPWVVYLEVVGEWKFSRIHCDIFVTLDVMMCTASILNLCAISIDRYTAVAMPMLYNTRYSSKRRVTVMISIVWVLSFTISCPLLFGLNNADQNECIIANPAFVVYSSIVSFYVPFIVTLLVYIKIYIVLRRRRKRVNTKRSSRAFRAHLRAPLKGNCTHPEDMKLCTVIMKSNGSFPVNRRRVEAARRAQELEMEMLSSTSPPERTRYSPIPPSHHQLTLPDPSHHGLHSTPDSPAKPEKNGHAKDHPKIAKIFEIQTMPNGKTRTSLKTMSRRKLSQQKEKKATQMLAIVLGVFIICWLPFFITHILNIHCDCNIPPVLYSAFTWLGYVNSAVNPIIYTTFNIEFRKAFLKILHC
Excerpt: (§1) The human dopamine receptor D2 (DRD2) and modified murine Gq5i cDNAs were inserted into pcDNA3 expression vectors. After verifying the PCR products by DNA sequencing, DRD2, Gq5i and the PathDetect pSRE-Luc Cis-Reporter Plasmid (#219080, Agilent Technologies) were transfected to HEK293T cells. As previously reported, Gq5i enables Gi/o-coupled receptor activity to be detected using a serum response element (SRE)-luciferase reporter gene (See, Conklin et al., Nature 363(6426):274-6 (1993); Al-Fulaij et al., J. Pharmacol. Exp. Ther. 321(1):298-307 (2007)). These cells were starved in FCS-free DMEM medium for six hours before incubating them with 2 μM dopamine hydrochloride (Sigma Aldrich) together with each of the compound at 0, 0.5, 1, 2 and 4 μM for three hours. The reporter activity was measured using Pierce™ Firefly Luciferase Glow Assay Kit (Thermo Fisher Scientific).
For IC50 calculation, KOPT-K1 cells were treated with each of the compounds at various concentrations for 72 hours, followed by the determination of viable cell numbers with PrestoBlue® cell viability reagent. For the PP2A phosphatase activity assay, KOPT-K1 cells were treated with each of the compounds at 10 μM for 3 hours before phosphatase activity was measured. Dopamine D2 receptor activity was monitored in HEK293T cells coexpressing the dopamine D2 receptor, modified G protein and SRE luciferase reporter. Cells were treated with each of the compound at 10 μM for 3 hours, then lysed for the luciferase reporter assay.
as §1, with “D2” for “D2 (DRD2)”, “363(6426):274-276” for “363(6426):274-6”, “0.5” for “0, 0.5, 1, 2 and 4”

KOPT-K1 cells [3] = assay: Cell cycle status by PI flow cytometry; format: cell-based, human; conditions: 24 hours
Procedure: Relative DNA content of cells in each of the samples was determined by measuring PI (propidium iodide) staining using flow cytometry. The results are illustrated in FIG. 31A-FIG. 31B.
Relative DNA content of cells in each of the samples was determined as described above.

[4] = test system: MYBL2 Ser241 in KOPT-K1 cells; assay: Phosphoproteomics analysis; format: cell-based, human; conditions: 3 hours
Procedure: To evaluate phosphopeptides in KOPT-K1 cells by phosphoproteomics analysis, cells were treated with PPZ at 10 μM or iPAP1 at 1 μM for 3 hours.

[5] = test system: p-ERK and p-AKT in KOPT-K1 cells; assay: Western blot of p-ERK and p-AKT; format: cell-based, human; conditions: three hours
Excerpt: Levels of the PP2A endogenous substrates p-ERK and p-AKT in KOPT-K1 cells were examined because of the importance of the MAPK/ERK and PI3K/AKT/mTOR pathways in cancer cells.

KOPT-K1 cells [6] = assay: Survival of NSG mice xenotransplanted with KOPT-K1 cells; format: in vivo, NSG (NOD/Scid/IL2Rγnull) mice; conditions: 2.5 mg/kg/day, oral, from day 10
Excerpt: At day one, 1×10^6 KOPT-K1 cells were intravenously injected into each mouse via its tail veins.

[7] = Movement disorder in free-swimming zebrafish embryos; format: in vivo; conditions: five days
Excerpt: Note that the embryos were not anesthetized. Scale bar: 0.1 mm.

[8] = test system: PLK1, PLK4, AURKA, KIF11, SASS6, RCC1, HAUS8, TPX2, PCNT, CENPJ and TUBG1 in KOPT-K1 cells; assay: Relative mRNA expression of spindle monopolarity genes; format: cell-based, human; conditions: 1 μM, 6 hours
Procedure: The relative mRNA expression of genes whose inducible CRISPR-cas9 knockout causes cell cycle arrest in prometaphase yielding spindle monopolarity (PLK1, PLK4, AURKA, KIF11, SASS6, RCC1, HAUS8, TPX2, PCNT, CENPJ and TUBG1) (McKinley et al., Dev. Cell 40:405-420 (2017)) was evaluated in […] cell lines. […] The results are illustrated in FIG. 33.

[9] = test system: KOPT-K1, SUPT-13 and RPMI-8402 cells; assay: Dose-response viability in three T-ALL cell lines, 72 hours; format: cell-based, human
Procedure: Viable cells are shown on the Y axis as a percent of the DMSO control cells. Data are presented as means±s.d. (n=3). Data are presented as means±s.d. […] The IC50 for iPAP1 is 200 to 400 nM for these cell lines.
(Perrotti and Neviani, Cancer Metastasis Rev. 27(2):159-68 (2008); Sangodkar et al., J. Clin. Invest. 127(6):2081-2090 ([…])). […] Data are presented as means±s.d.

[10] = test system: 274 cancer cell lines from 39 distinct types of human cancers; assay: PRISM analysis of cell viability; format: cell-based; conditions: 5 μM, 5 days
Procedure: Many other human cell lines from hematologic malignancies and solid tumors were as sensitive as the most sensitive T-ALL cell lines to treatment with iPAP1. Cell lines with a relative viability below the dashed line at 0.5 have an IC50 value for iPAP1 below 5 μM.

[11] = target: tubulin from porcine brain (Sus scrofa, UniProt P02550+P02554); assay: Fluorescence-based tubulin polymerization assay; conditions: concentrations of up to 2.5 or 5 μM
Sequence of tubulin from porcine brain (P02550 whole entry): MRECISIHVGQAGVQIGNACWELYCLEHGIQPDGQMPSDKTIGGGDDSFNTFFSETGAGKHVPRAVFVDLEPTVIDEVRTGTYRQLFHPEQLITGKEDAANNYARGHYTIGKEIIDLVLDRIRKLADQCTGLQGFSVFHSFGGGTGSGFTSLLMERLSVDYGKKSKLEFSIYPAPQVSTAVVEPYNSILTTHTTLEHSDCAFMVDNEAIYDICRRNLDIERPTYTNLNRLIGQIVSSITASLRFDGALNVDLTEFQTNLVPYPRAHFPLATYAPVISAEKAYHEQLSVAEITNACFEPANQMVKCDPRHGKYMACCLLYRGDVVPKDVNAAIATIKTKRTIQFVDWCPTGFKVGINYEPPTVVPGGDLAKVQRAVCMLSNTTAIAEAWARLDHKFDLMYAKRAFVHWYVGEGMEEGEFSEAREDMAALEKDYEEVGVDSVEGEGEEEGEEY
Sequence of tubulin from porcine brain (P02554 whole entry): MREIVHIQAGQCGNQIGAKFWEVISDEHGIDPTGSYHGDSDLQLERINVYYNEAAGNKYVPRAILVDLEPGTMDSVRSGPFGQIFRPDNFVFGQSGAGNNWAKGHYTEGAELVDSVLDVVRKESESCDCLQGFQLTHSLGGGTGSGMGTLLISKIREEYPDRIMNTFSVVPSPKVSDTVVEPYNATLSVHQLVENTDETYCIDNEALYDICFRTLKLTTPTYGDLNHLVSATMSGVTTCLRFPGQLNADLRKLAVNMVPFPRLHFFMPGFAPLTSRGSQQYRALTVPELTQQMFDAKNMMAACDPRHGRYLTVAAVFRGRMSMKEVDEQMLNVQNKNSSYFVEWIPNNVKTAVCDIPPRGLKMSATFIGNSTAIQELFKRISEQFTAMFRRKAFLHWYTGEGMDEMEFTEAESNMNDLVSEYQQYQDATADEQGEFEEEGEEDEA
Procedure: Briefly, free tubulin (2 mg/mL) in buffer supplemented with 1 mM GTP and 15% glycerol was employed. Then, the test compounds were added to tubulin solution and changes in the fluorescence intensity (ex=370 nm, em=445 nm) were measured by kinetic reading at 37° C. using SpectraMax® M5 Microplate reader (Molecular Devices LLC).

OCCN1CCN(CCCN2c3ccccc3Sc3ccc(Cl)cc32)CC1 [PPZ, perphenazine, reference compound]
activity against T-ALL (GFP signal) ([1]; 5 μM, five days): some activity against T-ALL with reduced GFP signal | inhibitory activity on DRD2 [2]: strong inhibitory activity on DRD2 at 0.5 μM; also recorded: strong inhibitory activity of DRD2 activity at concentrations as low as 0.5 μM | cell cycle status (KOPT-K1 cells [3]; 10 μM and 20 μM): induced significant G2/M phase arrest | phosphorylation of MYBL2 ([4]; 10 μM): completely dephosphorylated at Ser241 | phosphorylation of ERK and AKT [5]: significantly reduced | overall survival (KOPT-K1 cells [6]): did not show any survival advantage over the control | swimming behaviour / movement disorder ([7]; 5 μM): exhibited movement disorders and swam upside down or on their sides

COc1ccc(C(=O)N2c3ccccc3Sc3ccc(Cl)cc32)cc1 [iPAP1]
relative mRNA expression [8]: significantly down-regulated the expression levels of most of these genes | reduction of the GFP signal more than PPZ ([1]; 2 μM iPAP1 vs 5 μM PPZ, five days): at least 5 fold | GFP-positive leukemic area ([1]; serial dosage): dose dependent increased T-ALL cell killing | inhibitory activities on DRD2 ([2]; 0.5 μM for three hours with 2 μM dopamine): did not show inhibitory activities on DRD2 | inhibitory activity against DRD2 compared to PPZ ([2]; 10 μM for three hours): ~1% | inhibitory activity on DRD2 [2]: no inhibitory activity of DRD2 signaling at concentrations up to 4 μM | DRD2 inhibitory activity as share of the activity of PPZ ([2]; 0.5 to 4 μM): less than 1% | less active in inhibiting DRD2 than PPZ ([2]; multiple molar concentrations): more than 100 fold | cell cycle status (KOPT-K1 cells [3]; 1 μM and 2 μM): induced significant G2/M phase arrest | phosphorylation of MYBL2 ([4]; 1 μM): completely dephosphorylated at Ser241 | IC50 ([9]; Homo sapiens, KOPT-K1, SUPT-13 and RPMI-8402, 72 hours): 200 to 400 nM | more active than SMAP against T-ALL cells based on the IC50 ([9]; SUPT-13, KOPT-K1 and RPMI-8402): ~5 fold | overall survival (KOPT-K1 cells [6]): significantly extended the overall survival period | cell killing compared with PPZ in every cell line [10]: more active in cell killing than was PPZ | inhibition of tubulin polymerization [11]: inhibition of tubulin polymerization was not detected | swimming behaviour / movement disorder ([7]; 2 μM): swam upright
